Laboratory results published in PubChem BioAssay (NCI).
Where “and” joins values, the source holds several entries; their conditions need not be identical. Identical values can stand only once.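 Five concentrations, 48 hours, 96-well plates. The concentration for 50% growth inhibition is given as GI50. At the TGI there is no net growth.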

Experiments:
Experiment in all cases: inhibition of tumour cell growth, NCI panel, 48 h
KM12 colon = tested on: KM12 colon
RPMI-8226 leukemia = tested on: RPMI-8226 leukemia
SK-MEL-2 melanoma = tested on: SK-MEL-2 melanoma
HT29 colon = tested on: HT29 colon
K-562 leukemia = tested on: K-562 leukemia
CCRF-CEM leukemia = tested on: CCRF-CEM leukemia
M19-MEL melanoma = tested on: M19-MEL melanoma
A549 NSCLC = tested on: A549 NSCLC
OVCAR-3 ovarian = tested on: OVCAR-3 ovarian
IGROV1 ovarian = tested on: IGROV1 ovarian

| SMILES | TGI (KM12 colon) | TGI (RPMI-8226 leukemia) | TGI (SK-MEL-2 melanoma) | TGI (HT29 colon) | TGI (K-562 leukemia) | TGI (CCRF-CEM leukemia) | TGI (M19-MEL melanoma) | TGI (A549 NSCLC) | GI50 (KM12 colon) | GI50 (RPMI-8226 leukemia) | GI50 (SK-MEL-2 melanoma) | GI50 (HT29 colon) | TGI (OVCAR-3 ovarian) | TGI (IGROV1 ovarian) | GI50 (K-562 leukemia) | GI50 (M19-MEL melanoma) |
| --- | --- | --- | --- | --- | --- | --- | --- | --- | --- | --- | --- | --- | --- | --- | --- | --- |
| O=C(CSc1nnc(-c2ccc(N=Cc3ccc(Cl)cc3)cc2)o1)Nc1cccc([N+](=O)[O-])c1 | > 100 µM | > 100 µM | > 100 µM | > 100 µM | > 100 µM | > 100 µM | > 100 µM | > 100 µM |  |  |  |  |  |  |  |  |
| NC(CS)C(=O)NCCNc1ccc(NCCNC(=O)C(N)CS)c2c1C(=O)c1c(O)ccc(O)c1C2=O (centres undefined) | 0.874 µM and 0.264 µM | 0.744 µM and 0.0804 µM | 1.38 µM and 0.87 µM | 1.08 µM and 0.689 µM | 0.614 µM and 0.145 µM | 0.517 µM | 0.863 µM and 1.01 µM | 0.191 µM | 0.0393 µM | 0.0152 µM | 0.227 µM | 0.0454 µM | 1.76 µM and 1.58 µM | 1.47 µM | 0.0192 µM | 0.138 µM |
| O=C1C(=Cc2ccc([N+](=O)[O-])o2)C(=O)N(CCc2ccccc2)S(=O)(=O)N1CCc1ccccc1 | > 100 µM | > 100 µM | 35.2 µM | > 100 µM | > 100 µM | > 100 µM | 31.7 µM | > 100 µM |  |  |  |  | 31.4 µM | > 100 µM |  |  |
| CCOC(=O)C1=C(O)c2ccc(OC)cc2C(=O)C1=O | > 100 µM | > 100 µM | > 100 µM | > 100 µM | > 100 µM | > 100 µM | 44.4 µM | > 100 µM |  |  |  |  | > 100 µM | > 100 µM |  |  |
| O=C1NC(Cc2ccccc2)C(=O)N2CCCC12 (centres undefined) | > 100 µM | > 100 µM | > 100 µM | > 100 µM | > 100 µM | > 100 µM | > 100 µM | > 100 µM |  |  |  |  | > 100 µM | > 100 µM |  |  |
| N/C(=N/N=C/c1cccc(F)c1)NO | > 100 µM | > 100 µM | > 100 µM | > 100 µM | > 100 µM | > 100 µM | > 100 µM | 98.7 µM |  |  |  |  | > 100 µM | > 100 µM |  |  |
| COc1ccc(N2C(=O)C3C=CC(n4[nH]c(=O)n(Cc5ccccc5)c4=O)CC3C2=O)cc1 (centres undefined) | > 100 µM | > 100 µM | > 100 µM | > 100 µM | > 100 µM | > 100 µM | > 100 µM | > 100 µM |  |  |  |  | > 100 µM | > 100 µM |  |  |
| CC(=O)Nc1ccc(C(=O)n2[nH]c(C)c(/C=C3\C(=O)C=Cc4ccccc43)c2=O)cc1 | > 100 µM | > 100 µM | 95.3 µM | > 100 µM | > 100 µM | > 100 µM | > 100 µM | > 100 µM |  |  |  |  | > 100 µM |  |  |  |
| Cc1cc(=O)[nH]c(NNC(C#N)c2ccc(N(C)C)cc2)n1 (centres undefined) | > 100 µM | > 100 µM | > 100 µM | > 100 µM | > 100 µM | > 100 µM | > 100 µM | > 100 µM |  |  |  |  | > 100 µM | > 100 µM |  |  |
| CCCCc1c2c(nc3c1CCCC3=O)CCCC2 | > 100 µM | > 100 µM |  | > 100 µM | > 100 µM | > 100 µM | > 100 µM | > 100 µM |  |  |  |  | > 100 µM | > 100 µM |  |  |
| COCC1N=C(c2cc(OC)c(OC)c(OC)c2-c2cc3c(cc2[C@@H](C)O)OCO3)O[C@H]1c1ccccc1 (some centres undefined) | > 100 µM | > 100 µM | > 87.7 µM | > 100 µM | > 100 µM | > 100 µM | > 100 µM | > 100 µM |  |  |  |  | > 100 µM | > 100 µM |  |  |
| CC(C)OC(=O)c1cccnc1/C=N/O | > 100 µM | > 100 µM | > 100 µM | > 100 µM | > 100 µM | > 100 µM | > 100 µM | > 100 µM |  |  |  |  | > 100 µM | > 100 µM |  |  |
| Nc1ccn(CCCC(c2ccccc2)P(=O)(O)O)c(=O)n1 (centres undefined) | > 100 µM | > 100 µM | > 100 µM | > 100 µM | > 100 µM | > 100 µM | > 100 µM | > 100 µM |  |  |  |  | > 100 µM | > 100 µM |  |  |
| O=P(Nc1cccc(Cl)c1)(Oc1ccccc1)N(CCCl)CCCl (centres undefined) | 28.6 µM |  | 25.6 µM | 28.4 µM | > 100 µM | > 100 µM | 32.8 µM | 29.2 µM |  |  |  |  | 35.7 µM | 30.4 µM |  |  |
| C[C@]12CCC(=O)C=C1CC[C@@H]1C2CC[C@@]2(C)C1CC[C@@H]2OC(=O)C12OC1CCC2=O (some centres undefined) | 35 µM | 52.1 µM | 29.8 µM | 33.4 µM | 59.4 µM | 32.6 µM | 30.3 µM | 54.6 µM |  |  |  |  | 32.9 µM | 23.6 µM |  |  |
| O=C(c1cccnc1)N1N=C(c2ccc3c(c2)OCO3)CC1(O)c1cc(F)c(Cl)cc1Cl (centres undefined) | > 100 µM | > 100 µM | 59.2 µM | 35.9 µM | > 100 µM | 75.4 µM |  | > 100 µM |  |  |  |  | 26.3 µM | 34.1 µM |  |  |

| SMILES | TGI (KM12 colon) | TGI (RPMI-8226 leukemia) | TGI (SK-MEL-2 melanoma) | TGI (HT29 colon) | TGI (K-562 leukemia) | TGI (CCRF-CEM leukemia) | TGI (M19-MEL melanoma) | TGI (A549 NSCLC) | GI50 (KM12 colon) | GI50 (RPMI-8226 leukemia) | GI50 (SK-MEL-2 melanoma) | GI50 (HT29 colon) | TGI (OVCAR-3 ovarian) | TGI (IGROV1 ovarian) | GI50 (K-562 leukemia) | GI50 (M19-MEL melanoma) |
| --- | --- | --- | --- | --- | --- | --- | --- | --- | --- | --- | --- | --- | --- | --- | --- | --- |
| CCc1n[nH]c(=O)n1N=C(c1ccccc1)c1ccccc1 | > 100 µM | > 100 µM | > 100 µM | > 100 µM | > 100 µM | > 100 µM |  | > 100 µM |  |  |  |  | > 100 µM | > 100 µM |  |  |
| O=C1C(c2c(O)[nH]c3ccc(I)cc23)=Nc2ccccc21 | > 100 µM | > 100 µM | 15.4 µM | > 100 µM | > 100 µM | > 100 µM |  | 20.3 µM |  |  |  |  | 29.2 µM | 9.24 µM |  |  |
| CN(C)CCNC(=O)c1cccc2[nH]c(-c3ccc(Cl)cc3)nc12 | 20.9 µM | 8.78 µM | 26.5 µM | 16.6 µM | 12.6 µM | 35.7 µM | 19.7 µM | 17.7 µM |  |  |  |  | 27.7 µM | 25.8 µM |  |  |
| CCOC(=O)[C@H](CO)Nc1c(O)c2c(c(O)c1Cl)C(=O)C=CC2=O | > 10 µM | > 10 µM | > 10 µM | > 10 µM | > 10 µM | > 10 µM |  | > 10 µM |  |  |  |  | > 10 µM | > 10 µM |  |  |
| COC(=O)CC1NC(=O)C1C(C)(OC)OC (centres undefined) |  | > 100 µM | > 100 µM | > 100 µM | > 100 µM | > 100 µM | > 100 µM | > 100 µM |  |  |  |  | > 100 µM | > 100 µM |  |  |
| COc1ccc(NC(=O)C2=CC(=O)c3ccc(O)cc3C2=O)c(OC)c1 | > 100 µM | > 100 µM |  | > 100 µM | > 100 µM | > 100 µM | > 100 µM | > 100 µM |  |  |  |  | > 100 µM | > 100 µM |  |  |
| O=C1NC2OC(CO)C(O)C(O)C2O1 (centres undefined) | > 100 µM |  | > 100 µM | > 100 µM | > 100 µM | > 100 µM | > 100 µM | > 100 µM |  |  |  |  | > 100 µM | > 100 µM |  |  |
| CCOC(=O)C(NC(=O)c1ccccc1)(Nc1ccc(S(=O)(=O)Nc2ccc(OC)nn2)cc1)C(F)(F)F (centres undefined) | > 100 µM | > 100 µM | > 100 µM | > 100 µM | > 100 µM | > 100 µM |  | > 100 µM |  |  |  |  | > 100 µM | > 100 µM |  |  |
| CC1(C)OC2[C@@H](CO[C@@]3([C@H]4OC(C)(C)O[C@@H]4CO)OC(C)(C)O[C@@H]23)O1 (some centres undefined) | > 100 µM | > 100 µM | > 100 µM | > 100 µM | > 100 µM | > 100 µM |  | > 100 µM |  |  |  |  | > 100 µM | > 100 µM |  |  |
| O=C(NCCCc1cn[nH]c(=O)n1)c1cccc2nc3ccccc3nc12 | > 100 µM | > 100 µM | > 100 µM | > 100 µM | > 100 µM | > 100 µM |  | > 100 µM |  |  |  |  | > 100 µM | > 100 µM |  |  |
| CC(C)(CO)NC(=O)c1cccs1 | > 100 µM | > 100 µM | > 100 µM | > 100 µM | > 100 µM | > 100 µM |  | > 100 µM |  |  |  |  | > 100 µM | > 100 µM |  |  |
| COc1cc(C2c3cc4c(cc3OC(NNc3ccccc3)C2C)OCO4)cc(OC)c1O (centres undefined) | 12 µM | 9.78 µM | 6.35 µM | 16.7 µM | 12.4 µM | 21.3 µM |  | 13.3 µM |  |  |  |  | 14.8 µM | 24.6 µM |  |  |
| NNC(=S)NN/C=C(\C=Nc1ccccc1)[N+](=O)[O-] |  | > 100 µM | > 100 µM | > 100 µM |  |  | > 100 µM | > 100 µM |  |  |  |  | > 100 µM | > 100 µM |  |  |
| COc1ccc2nc3c([N+](=O)[O-])ccc(NCCCN(C)C)c3c(N)c2c1 | 3.02 µM | 1.84 µM | 4.78 µM | 2.31 µM | 1.41 µM | 1.26 µM |  | 3.15 µM |  |  |  |  | 3 µM | 2.85 µM |  |  |
| COc1cc2nc3n(c(=O)c2cc1OC)CCCCC3 | > 100 µM | > 100 µM | > 100 µM | > 100 µM | > 100 µM | > 100 µM |  | > 100 µM |  |  |  |  | > 100 µM | > 100 µM |  |  |
| COc1ccc(/C=C(\C2=NC(=O)CS2)c2nc3ccccc3[nH]2)cc1 | > 100 µM | > 100 µM | 62.9 µM | > 100 µM | > 100 µM | > 100 µM | > 100 µM | > 100 µM |  |  |  |  | 52.3 µM | > 100 µM |  |  |
